Measurements: patent US20050119288A1, “Dosing schedule for a novel anticancer agent” (Pfizer Inc, priority 2003, published 2005)
Like-named read-outs stand apart in the source and are kept apart here.

How the values were obtained:
[1] = Pharmacokinetics in BT-474 tumor-bearing mice; type: in vivo; conditions: for Cave0-4 h: PO, day 22; for AUC(0-t) / Cmax: female, athymic, mouse, blood, po; for Cmax: day 22, read-out: Cmax 0.5 h
Method: (§1) Exponentially growing BT-474 cells (RPMI 1640 with 10 mM HEPES, 10% FBS, and pen/strep [Gibco]) were harvested and inoculated SC (5 million cells/animal) into female athymic mice. Trochar pieces of BT-474 tumors were then implanted into the right flank of animals. BT-474 tumor bearing mice (50-320 mm^3 in size, N=40) were randomized in 7 groups consisting 5-6 animals each. Animals were treated with vehicle (PO, BID) or the test compound (PO, QD or BID) as described in Table 4. The tumor measurements and body weight changes were obtained on days 1, 6, 11, 15 and 22. Tumor volume was calculated by the following formula: Tumor volume (mm^3)═(W×W)/2×L (L=length & W=width). Blood samples (˜50 μl) were isolated at 0.5, 1, 2, 4 and 8 hrs after dosing on day 22 for PK-analysis. Tumors were isolated at 0.5 hr post-dosing on day 22 for PD-analysis by ELISA.

[2] = Body weight and tolerability, FRE/erbB2 study
Method: A 1.15 mg/ml solution of the test compound was infused IV at 550 μl/hr for 2 minute ramped infusions followed by 50 μl/hr for 15 min or 4 hour daily infusions. […] Athymic female mice bearing FRE/erbB2 tumors (˜100 mm^3 in size) were treated with vehicle, the test compound orally or the test compound intravenously. Body weight changes and tumor measurements were obtained at regular intervals (Days 1, 3, 5, and 7). The study was carried out for 7 days.

[3] = Body weight and tolerability, BT-474 study; type: in vivo, mice; conditions: PO
Method: as §1

BT-474 tumors = assay: BT-474 xenograft tumor growth in athymic mice; type: in vivo, human; conditions: PO; for % Growth inhibition: 22 days
Excerpt: The in vivo anti-tumor activity of the compounds for use in the methods of the present invention can be determined by the amount of inhibition of tumor growth by a test compound relative to a control. The tumor growth inhibitory effects of various compounds can be measured according to the method of Corbett T. H., et al., “Tumor Induction Relationships in Development of Transplantable Cancers of the Colon in Mice for Chemotherapy Assays, with a Note on Carcinogen Structure”, Cancer Res., 35, 2434-2439 (1975) and Corbett T. H., et al., “A Mouse Colon-tumor Model for Experimental Therapy”, Cancer Chemother. Rep. (Part 2)”, 5, 169-186 (1975), with slight modifications. Tumors can be induced in the left flank of mice by subcutaneous (sc) injection of 1-5 million log phase cultured tumor cells suspended in 0.1 ml RPMI 1640 medium. After sufficient time has elapsed for the tumors to become palpable (˜100-150 mm^3 in size/5-6 mm in diameter) the test animals (athymic female mice) are treated with test compound (formulated at a concentration of 10 to 15 mg/ml in 5 Gelucire or 0.5% methyl cellulose) by the intravenous (iv) or oral (po) route of administration once or twice daily for 7 to 29 consecutive days. In order to determine an anti-tumor effect, the tumor is measured in millimeters with a Vernier caliper across two diameters and the tumor size (mm^3) is calculated using the formula: Tumor size (mm^3)=(W×W)/2×L (L=length and W=width), according to the methods of Geran, R. I., et al. “Protocols for Screening Chemical Agents and Natural Products Against Animal Tumors and Other Biological Systems”, Third Edition, Cancer Chemother. Rep., 3, 1-104 (1972). Results are expressed as percent inhibition, according to the formula: Inhibition Growth (%)=[100-{(% Growth of Treated/% Growth of Control)×100}]. The flank site of tumor implantation provides reproducible dose/response effects for a variety of chemotherapeutic agents, and the method of measurement (tumor diameter) is a reliable method for assessing tumor growth rates.
as §1
Statistical Analysis: ANOVA was conducted on the percentage growth data and planned comparisons were conducted between like-doses. The data were log transformed for the analysis due to the distribution of the values. The Dunnett-Tamahane procedure was used for the multiple comparison analysis.
Thus, oral anti-tumor efficacy of the test compound (QD and BID) was determined against human breast adenocarcinoma model BT-474 which overexpresses erbB2. The test compound administration (QD or BID) was efficacious and caused growth inhibition of BT-474 xenografts (FIGS. 5a and 5b). […] Due to a wide variation in the initial tumor volume, % growth of individual tumor was calculated and an average of each group was used to determine relative anti-tumor efficacy.

[4] = biological target: erbB2 receptor autophosphorylation (Homo sapiens, UniProt P04626); assay: p-erbB2 reduction in BT-474 tumors by ELISA; type: in vivo; conditions: 0.5 hr post-dosing on day 22; for inhibition in vivo at 30 mg/kg / inhibition in vivo at 50 mg/kg: BT-474, po, 0.5 h; for % p-erbB2 reduction: PO
erbB2 receptor autophosphorylation, sequence (P04626 23-1255): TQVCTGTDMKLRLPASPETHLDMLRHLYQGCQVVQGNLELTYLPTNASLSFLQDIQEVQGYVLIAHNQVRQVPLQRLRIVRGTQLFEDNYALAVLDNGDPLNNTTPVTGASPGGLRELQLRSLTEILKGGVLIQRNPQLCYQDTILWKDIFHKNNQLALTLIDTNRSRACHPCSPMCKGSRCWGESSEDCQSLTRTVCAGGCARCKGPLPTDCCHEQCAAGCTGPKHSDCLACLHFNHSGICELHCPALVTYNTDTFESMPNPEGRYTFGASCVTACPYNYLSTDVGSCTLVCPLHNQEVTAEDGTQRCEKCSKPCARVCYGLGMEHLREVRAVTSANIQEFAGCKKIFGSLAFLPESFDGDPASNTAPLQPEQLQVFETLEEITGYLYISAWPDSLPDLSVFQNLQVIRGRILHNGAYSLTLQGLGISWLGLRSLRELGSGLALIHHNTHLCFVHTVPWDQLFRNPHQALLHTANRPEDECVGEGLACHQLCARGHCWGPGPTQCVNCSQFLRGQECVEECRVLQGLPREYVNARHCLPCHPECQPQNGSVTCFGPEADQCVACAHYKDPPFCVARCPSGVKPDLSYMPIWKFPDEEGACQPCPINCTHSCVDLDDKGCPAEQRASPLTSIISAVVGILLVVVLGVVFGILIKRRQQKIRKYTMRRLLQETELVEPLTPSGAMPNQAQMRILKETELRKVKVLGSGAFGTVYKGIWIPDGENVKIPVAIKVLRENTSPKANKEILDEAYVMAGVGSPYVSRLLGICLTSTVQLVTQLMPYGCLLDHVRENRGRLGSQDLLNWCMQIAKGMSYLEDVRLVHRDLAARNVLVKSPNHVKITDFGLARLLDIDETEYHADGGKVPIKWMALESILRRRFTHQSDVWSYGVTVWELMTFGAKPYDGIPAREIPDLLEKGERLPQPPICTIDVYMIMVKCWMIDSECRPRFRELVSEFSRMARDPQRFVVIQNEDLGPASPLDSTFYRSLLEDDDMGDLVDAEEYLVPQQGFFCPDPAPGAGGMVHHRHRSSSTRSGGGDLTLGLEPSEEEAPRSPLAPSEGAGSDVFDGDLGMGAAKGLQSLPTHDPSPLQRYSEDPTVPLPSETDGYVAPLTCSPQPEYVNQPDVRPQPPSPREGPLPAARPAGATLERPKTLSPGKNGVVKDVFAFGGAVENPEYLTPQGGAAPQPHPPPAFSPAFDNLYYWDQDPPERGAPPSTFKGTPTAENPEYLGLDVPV
Method: as §1

[5] = BID, 15 mg/kg (Total Daily Dose = 30 mg/kg)
[6] = BID, 30 mg/kg (Total Daily Dose = 60 mg/kg)
[7] = BID, 50 mg/kg (Total Daily Dose = 100 mg/kg)

Structure (SMILES): COCC(=O)NC/C=C/c1ccc2ncnc(Nc3ccc(Oc4ccc(C)nc4)c(C)c3)c2c1 [Test Compound, E-2-Methoxy-N-(3-{4-(3-methyl-4-(6-methyl-pyridin-3-yloxy)-phenylamino)-quinazolin-6-yl}-allyl)-acetamide]
- Cave0-4 h ([1]; 15 mg/kg, BID): 120 ng/mL
- Cave0-4 h ([1]; 30 mg/kg, BID, estimated based on the extrapolated concentration at 4 hr from 2 hr and 8 hr exposures): 360 ng/mL
- Cave0-4 h ([1]; 30 mg/kg, QD, estimated based on the extrapolated concentration at 4 hr from 2 hr and 8 hr exposures): 320 ng/mL
- Cave0-4 h ([1]; 50 mg/kg, BID): 1320 ng/mL
- Cave0-4 h ([1]; 50 mg/kg, QD, estimated based on the extrapolated concentration at 4 hr from 2 hr and 8 hr exposures): 1060 ng/mL
- AUC(0-t) ([1]; 15 mg/kg, BID, day 22, read-out: AUC0-4 h): 480 ng·h/mL
- Cmax ([1]; 15 mg/kg, BID): 616 ng/mL
- Cmax ([1]; 15 mg/kg, QD): 250 ng/mL
- AUC(0-t) ([1]; 30 mg/kg, BID, day 22, estimated based on the extrapolated concentration at 4 hr from 2 hr and 8 hr exposures, read-out: AUC0-4 h): 1440 ng·h/mL
- Cmax ([1]; 30 mg/kg, BID): 1570 ng/mL
- AUC(0-t) ([1]; 30 mg/kg, QD, day 22, estimated based on the extrapolated concentration at 4 hr from 2 hr and 8 hr exposures, read-out: AUC0-4 h): 1280 ng·h/mL
- Cmax ([1]; 30 mg/kg, QD): 1800 ng/mL
- AUC(0-t) ([1]; 50 mg/kg, BID, day 22, read-out: AUC0-4 h): 5280 ng·h/mL
- Cmax ([1]; 50 mg/kg, BID): 6170 ng/mL
- AUC(0-t) ([1]; 50 mg/kg, QD, day 22, estimated based on the extrapolated concentration at 4 hr from 2 hr and 8 hr exposures, read-out: AUC0-4 h): 4220 ng·h/mL
- Cmax ([1]; 50 mg/kg, QD): 5890 ng/mL
- average body weight Day 1 ([2]; 1.4 mg/kg IV, QD, 15 min/day): 23 g
- average body weight Day 7 ([2]; 1.4 mg/kg IV, QD, 15 min/day): 24 g
- average body weight Day 1 ([2]; 10.7 mg/kg IV, 4 hr/day): 22 g
- average body weight Day 7 ([2]; 10.7 mg/kg IV, 4 hr/day): 22 g
- average body weight Day 1 ([2]; 25 mg/kg PO, QD): 21 g
- average body weight Day 7 ([2]; 25 mg/kg PO, QD): 22 g
- body weight loss or mortality ([2]; FRE/erbB2 study, 7 days): did not cause any body weight loss or mortality
- average body weight Day 1 ([3]; BID 50 mg/kg): 24 g
- average body weight Day 1 ([3]; BID, 15 mg/kg): 24 g
- average body weight Day 22 ([3]; BID, 15 mg/kg): 29 g
- average body weight Day 1 ([3]; BID, 30 mg/kg): 26 g
- average body weight Day 22 ([3]; BID, 30 mg/kg): 30 g
- average body weight Day 22 ([3]; BID, 50 mg/kg): 28 g
- average body weight Day 1 ([3]; QD 50 mg/kg): 25 g
- average body weight Day 1 ([3]; QD, 15 mg/kg): 25 g
- average body weight Day 22 ([3]; QD, 15 mg/kg): 29 g
- average body weight Day 1 ([3]; QD, 30 mg/kg): 23 g
- average body weight Day 22 ([3]; QD, 30 mg/kg): 27 g
- average body weight Day 22 ([3]; QD, 50 mg/kg): 29 g
- tolerability, body weight loss or animal mortality ([3]; QD or BID, 22 days): well tolerated and there was no body weight loss or animal mortality
- Tumor volume Day 1 (Mean ± SE) (BT-474 tumors; BID 50 mg/kg): 155 ± 42 mm^3
- % Growth inhibition (BT-474 tumors; [5]): 54%
- Tumor volume Day 1 (Mean ± SE) (BT-474 tumors; BID, 15 mg/kg): 114 ± 47 mm^3
- Tumor volume Day 22 (Mean ± SE) (BT-474 tumors; BID, 15 mg/kg): 520 ± 254 mm^3
- % Growth inhibition (BT-474 tumors; [6]): 68%
- Tumor volume Day 1 (Mean ± SE) (BT-474 tumors; BID, 30 mg/kg): 161 ± 44 mm^3
- Tumor volume Day 22 (Mean ± SE) (BT-474 tumors; BID, 30 mg/kg): 530 ± 240 mm^3
- % Growth inhibition (BT-474 tumors; [7]): 68%
- Tumor volume Day 22 (Mean ± SE) (BT-474 tumors; BID, 50 mg/kg): 413 ± 98 mm^3
- Tumor volume Day 1 (Mean ± SE) (BT-474 tumors; QD 50 mg/kg): 153 ± 40 mm^3
- % Growth inhibition (BT-474 tumors; QD, 15 mg/kg): 22%
- Tumor volume Day 1 (Mean ± SE) (BT-474 tumors; QD, 15 mg/kg): 78 ± 18 mm^3
- Tumor volume Day 22 (Mean ± SE) (BT-474 tumors; QD, 15 mg/kg): 376 ± 79 mm^3
- % Growth inhibition (BT-474 tumors; QD, 30 mg/kg): 33%
- Tumor volume Day 1 (Mean ± SE) (BT-474 tumors; QD, 30 mg/kg): 139 ± 31 mm^3
- Tumor volume Day 22 (Mean ± SE) (BT-474 tumors; QD, 30 mg/kg): 635 ± 189 mm^3
- % Growth inhibition (BT-474 tumors; QD, 50 mg/kg): 35%
- Tumor volume Day 22 (Mean ± SE) (BT-474 tumors; QD, 50 mg/kg): 608 ± 136 mm^3
- inhibition in vivo at 30 mg/kg [4, 6]: 26%
- inhibition in vivo at 50 mg/kg [4, 7]: ~75%
- inhibition in vivo at 30 mg/kg ([4]; QD, 30 mg/kg): 57%
- inhibition in vivo at 50 mg/kg ([4]; QD, 50 mg/kg): ~75%
- % p-erbB2 reduction [4, 5]: below the limit of detection
- % p-erbB2 reduction [4, 6]: 26%
- % p-erbB2 reduction ([4]; QD, 15 mg/kg, 15 mg/kg): below the limit of detection
